The text below walks through data of ChEMBL document CHEMBL2424566, “Preparation of betulinic acid derivatives by chemical and biotransformation methods and determination of cytotoxicity against selected cancer cell lines” (Eur J Med Chem, 2013).

The structures appear in SMILES notation. Activity calls are given as the source filed them. The rule behind the calls is not given here.

Experiment [1] concerns A549. Nature of the experiment: Induction of apoptosis in human A549 cells assessed as early apoptosis and secondary necrosis at IC80 after 48 hrs by annexin V-FITC staining-based flow cytometric analysis relative to control. It is filed as functional.
The test system of experiment [2] is A549. Description: Induction of apoptosis in human A549 cells assessed as early apoptosis and secondary necrosis at IC80 after 24 hrs by annexin V-FITC staining-based flow cytometric analysis relative to control. It is filed as functional. (In general: Flow cytometry measures light scatter and fluorescence of single cells or particles in a stream.)
Experiment [3] has as its system A549. Nature of the experiment: Induction of apoptosis in human A549 cells assessed as occurrence of typical DNA ladders at IC80 after 72 hrs by agarose gel electrophoresis. It is filed as functional, cell-based.
Experiment [4] relates to A549. Description: Induction of apoptosis in human A549 cells assessed as apoptotic bodies at IC80 after 24 hrs by acridine orange/ethidium bromide staining-based fluorescence microscopic analysis. The format is functional, cell-based.
Experiment [5] concerns A549. Description: Induction of apoptosis in human A549 cells assessed as membrane blebbing at IC80 after 24 hrs by acridine orange/ethidium bromide staining-based fluorescence microscopic analysis. It is filed as functional, cell-based.
In experiment [6] the test system is A549. Description: Induction of apoptosis in human A549 cells assessed as DNA fragmentation at IC80 after 24 hrs by acridine orange/ethidium bromide staining-based fluorescence microscopic analysis. The format is functional, cell-based.
Experiment [7] deals with A549. Nature of the experiment: Induction of apoptosis in human A549 cells assessed as chromatin condensation at IC80 after 24 hrs by acridine orange/ethidium bromide staining-based fluorescence microscopic analysis. The format is functional, cell-based.
Experiment [8] has as its system A549. Nature of the experiment: Cell cycle arrest in human A549 cells assessed as accumulation at G2/M phase at IC80 by propidium iodide staining-based flow cytometric analysis. It is filed as functional. Conditions: TDE = time-dependent effect.
The subject of experiment [9] is A549. Nature of the experiment: Cell cycle arrest in human A549 cells assessed as accumulation at S phase at IC80 by propidium iodide staining-based flow cytometric analysis. The format is functional. Conditions: TDE = time-dependent effect.
Experiment [10] concerns A549. Nature of the experiment: Cell cycle arrest in human A549 cells assessed as accumulation at G0/G1 phase at IC80 by propidium iodide staining-based flow cytometric analysis. The format is functional. Conditions: TDE = time-dependent effect.
In experiment [11] the test system is A549. Nature of the experiment: Cell cycle arrest in human A549 cells assessed as accumulation at subG1 phase at IC80 by propidium iodide staining-based flow cytometric analysis. The format is functional. Conditions: TDE = time-dependent effect.
Experiment [12] has as its system A549. Description: Cell cycle arrest in human A549 cells assessed as accumulation at G2/M phase at IC80 after 48 hrs by propidium iodide staining-based flow cytometric analysis (26 +/- 1.1%). It is filed as functional.
The subject of experiment [13] is A549. Nature of the experiment: Cell cycle arrest in human A549 cells assessed as accumulation at S phase at IC80 after 48 hrs by propidium iodide staining-based flow cytometric analysis (19.1 +/- 1.05%). The format is functional.
In experiment [14] the test system is A549. Nature of the experiment: Cell cycle arrest in human A549 cells assessed as accumulation at G0/G1 phase at IC80 after 48 hrs by propidium iodide staining-based flow cytometric analysis (48.5 +/- 1.82%). The format is functional.
The subject of experiment [15] is A549. Description: Cell cycle arrest in human A549 cells assessed as accumulation at subG1 phase at IC80 after 48 hrs by propidium iodide staining-based flow cytometric analysis (3.23 +/- 0.25%). It is filed as functional.
For experiment [16], the system named is A549. Description: Cell cycle arrest in human A549 cells assessed as accumulation at G2/M phase at IC80 after 24 hrs by propidium iodide staining-based flow cytometric analysis (24.9 +/- 1.46%). It is filed as functional.
The subject of experiment [17] is A549. Description: Cell cycle arrest in human A549 cells assessed as accumulation at S phase at IC80 after 24 hrs by propidium iodide staining-based flow cytometric analysis (20.2 +/- 0.81%). It is filed as functional.
Experiment [18] has as its system A549. Nature of the experiment: Cell cycle arrest in human A549 cells assessed as accumulation at G0/G1 phase at IC80 after 24 hrs by propidium iodide staining-based flow cytometric analysis (49.5 +/- 2.51%). The format is functional.
In experiment [19] the test system is A549. Nature of the experiment: Cell cycle arrest in human A549 cells assessed as accumulation at subG1 phase at IC80 after 24 hrs by propidium iodide staining-based flow cytometric analysis (2.73 +/- 0.49%). It is filed as functional.
Experiment [20] concerns A549. Nature of the experiment: Selectivity index, ratio of IC50 for human CCD-18Co cells to IC50 for human A549 cells. It is filed as functional.
Experiment [21] deals with MCF7. Description: Selectivity index, ratio of IC50 for human CCD-18Co cells to IC50 for human MCF7 cells. It is filed as functional.
Experiment [22] in a line: Selectivity index, ratio of IC50 for human CCD-18Co cells to IC50 for human 518A2 cells. The format is functional.
The nature of experiment [23]: Selectivity index, ratio of IC50 for human CCD-18Co cells to IC50 for human 8505C cells. It is filed as functional, 8505C;CCD-18Co.
In experiment [24] the test system is A2780. Nature of the experiment: Selectivity index, ratio of IC50 for human CCD-18Co cells to IC50 for human A2780 cells. It is filed as functional.
For experiment [25], the system named is A549. Nature of the experiment: Cytotoxicity against human A549 cells assessed as cell viability after 96 hrs by SRB assay. The format is functional, cell-based. Conditions: A549, 96 h. (In general: Sulforhodamine B stains cellular protein and so reports cell mass.)
Experiment [26] in a line: Cytotoxicity against human CCD-18Co cells assessed as cell viability after 96 hrs by SRB assay. The format is cell-based.
Experiment [27] concerns MCF7. Nature of the experiment: Cytotoxicity against human MCF7 cells assessed as cell viability after 96 hrs by SRB assay. The format is functional, cell-based. Conditions: MCF7, 96 h.
A short description of experiment [28]: Cytotoxicity against human 518A2 cells assessed as cell viability after 96 hrs by SRB assay. It is filed as functional, cell-based. Conditions: 518A2, 96 h.
A further experiment has as its system 8505C. Description: Cytotoxicity against human 8505C cells assessed as cell viability after 96 hrs by SRB assay. It is filed as functional, cell-based.
Experiment [29] relates to A2780. Description: Cytotoxicity against human A2780 cells assessed as cell viability after 96 hrs by SRB assay. It is filed as functional, cell-based. Conditions: A2780, 96 h.

For orientation: IC50 means the concentration at which inhibition is half-maximal. Take `C[C@@H](C=O)[C@@H]1CC[C@]2(C(=O)O)CC[C@]3(C)[C@H](CC[C@@H]4[C@@]5(C)CC/C(=N\Nc6ccc([N+](=O)[O-])cc6[N+](=O)[O-])C(C)(C)[C@@H]5CC[C@]43C)[C@@H]12`: the Activity in the experiment on A549 [1] is 8%; in the experiment on A549 [2] it was 12%; with A549 [8], “tde”; with A549 [9], “tde”; in the experiment with A549 [10] it was “tde”; in the experiment with A549 [11], “tde”. Also, the Activity with A549 [12] was found to be 15.9%; in the experiment on A549 [13], 14.6%; in the experiment with A549 [14], 49.7%; with A549 [15], 18.3%; with A549 [16] it was 13.9%; in the experiment on A549 [17], 14.8%. Moreover, the values for the Activity with A549 [18] and in the experiment with A549 [19] were 60.9% and 8.77%, respectively. For the same molecule, the result in the experiment with A549 [3], with A549 [4], in the experiment with A549 [5], in the experiment with A549 [6] and in the experiment with A549 [7] was Active. Besides, the “Ratio IC50” value (in the experiment with A549 [20]; in the experiment with MCF7 [21]; in experiment [22]; in [23]; in the experiment with A2780 [24]) was 3 in each case. Also, the IC50 in the experiment with A549 [25] was found to be 1.79 µM; in experiment [26], 8.3 µM; with MCF7 [27], 2.51 µM; in experiment [28] it was 1.91 µM; in the experiment with 8505C it was 2.44 µM; in the experiment with A2780 [29], 1.76 µM.

On to `C/C(=N\Nc1ccc([N+](=O)[O-])cc1[N+](=O)[O-])[C@@H]1CC[C@]2(C(=O)O)CC[C@]3(C)[C@H](CC[C@@H]4[C@@]5(C)CC[C@H](O)C(C)(C)[C@@H]5CC[C@]43C)[C@@H]12`, for which the outcome in the experiment with A549 [4], in the experiment on A549 [5], with A549 [6] and with A549 [7] was Active. Moreover, the “Ratio IC50” value (with A549 [20]; in the experiment on MCF7 [21]; in experiment [22]; in experiment [23]; in the experiment with A2780 [24]) was 5 each time. In addition, the half-maximal inhibitory concentration (IC50) stood at 7.62 µM in the experiment with A549 [25]; 56.7 µM in [26]; 6.84 µM in the experiment on MCF7 [27]; 9.09 µM in experiment [28]; 8.72 µM in the experiment with 8505C; 11.3 µM with A2780 [29].
